The values that follow come from PubChem BioAssay (NCI).

What all share (assay): DTP human tumour cell line panel, 48 h
In assay [1] the test system is A498 renal.
Assay [2] deals with ACHN renal.
In assay [3] the test system is HCT-116 colon.
Assay [4] relates to HS 578T breast.
Assay [5] relates to MCF7 breast.
Assay [6] concerns RXF 393 renal.
The test system of assay [7] is SK-MEL-2 melanoma.
Assay [8] has as its system SK-MEL-5 melanoma.
Assay [9] concerns SK-OV-3 ovarian.
In assay [10] the test system is SW-620 colon.

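Assay format: 96-well plates, 48-hour exposure. Here, GI50 denotes the concentration required for 50% inhibition of growth. The concentration for full growth arrest is given as TGI.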

The GI50 is the concentration giving 50% growth inhibition. By TGI is commonly meant the concentration at which net growth stops. For the compound `CC(=O)Nc1ccc(OC(C)=O)cc1`, the GI50 in assay [1] is under 0.01 µM; in [2], under 0.01 µM; in assay [3], under 0.01 µM; in [4], under 0.0166 µM; in [5], under 0.01 µM; in [6] it was under 0.01 µM. In addition, the GI50 in assay [7], in assay [8], in assay [9] and in assay [10] was under 0.01 µM in each case. The TGI in assay [1] is 0.0488 µM; in assay [2], 76 µM; in assay [3], 0.204 µM; in assay [4], 61.5 µM; in assay [5] it was over 74.4 µM; in assay [6], 6.3 µM. Moreover, the TGI in assay [7] is 8.54 µM; in assay [8], under 0.01 µM; in assay [10] it was over 100 µM.
As for `C#CCOC(=O)/C=C/C(=O)Oc1ccc2c(C)cc(=O)oc2c1`, the GI50 in assay [1], in assay [2], in assay [3], in [4], in [5] and in assay [6] was over 100 µM each time. Also, the GI50 in assay [7], in [8], in assay [9] and in [10] was over 100 µM in each case. Moreover, the TGI in assay [1], in assay [2], in assay [3], in assay [4], in [5] and in [6] was over 100 µM throughout. In addition, the TGI in assay [7], in assay [8], in [9] and in assay [10] was over 100 µM in each case.
Regarding `Cc1ccc2[nH]c(C(=O)NN3C(=O)C(C)SC34CCC(C)CC4)c(-c3ccccc3)c2c1` (stereo not drawn), the GI50 is 17.2 µM in assay [1]; 19.9 µM in assay [2]; 15.2 µM in [3]; 41.8 µM in assay [4]; 17.5 µM in [5]; 13.7 µM in assay [6]. For the same compound, the GI50 is 17.8 µM in assay [7], 18.4 µM in [8], 33.4 µM in assay [9] and 31.4 µM in assay [10]. The TGI is 35 µM in [1]; 44.2 µM in [2]; 34.5 µM in [3]; over 100 µM in assay [4]; over 100 µM in assay [5]; 30.1 µM in [6]. The TGI was 36.7 µM in assay [7], 36.3 µM in [8], over 100 µM in [9] and 82.6 µM in assay [10].
Consider `O=c1cc(-c2ccccc2)oc2c1ccc1ccccc12`, for which the GI50 was 11.1 µM in assay [1]; 17.6 µM in assay [2]; 20.3 µM in [3]; 23.4 µM in assay [4]; 13.9 µM in assay [5]; 24.1 µM in assay [6]. The GI50 in assay [7] was 74.7 µM; in assay [8] it was 20.2 µM; in [9], 19.3 µM; in assay [10], 49.2 µM. Also, the TGI was 44.1 µM in [1]; 90 µM in assay [2]; over 100 µM in assay [3]; 83.2 µM in [4]; over 100 µM in assay [5]; 64.4 µM in [6]. In addition, the TGI in [7] is over 100 µM; in assay [8], 65.3 µM; in [9] it was 54.1 µM; in [10], over 100 µM.
`C=CCOc1ccc(N)c([N+](=O)[O-])c1`: the TGI in assay [1], in assay [2], in assay [3], in [4], in [5] and in assay [6] was over 100 µM in each case. Further, the TGI in [7], in assay [8], in assay [9] and in assay [10] was over 100 µM each time.
As to `COc1ccc(-c2cc(-c3ccc(OC)cc3)nc(NCCCNc3ccnc4cc(Cl)ccc34)n2)cc1`, the GI50 in [1] was 5.32 µM; in assay [2], 1.82 µM; in assay [3] it was 1.45 µM; in [4], 14.9 µM; in assay [5] it was 1.65 µM; in assay [6], 1.32 µM. In addition, the GI50 was 14 µM in [7], 1.54 µM in [8], 1.71 µM in assay [9] and 1.69 µM in assay [10]. Besides, the TGI worked out at 18.3 µM in assay [1]; 3.22 µM in [2]; 2.76 µM in assay [3]; 44.8 µM in assay [4]; 3.5 µM in assay [5]; 2.74 µM in assay [6]. The TGI in assay [7] worked out at 28.4 µM; in assay [8], 2.89 µM; in assay [9] it was 3.14 µM; in assay [10] it was 3.34 µM.
Consider `Fc1ccc(-c2ncn(CCCN3CCOCC3)c2-c2ccncc2)cc1`, for which the GI50 in [1], in assay [2], in assay [3], in [4], in assay [5] and in assay [6] was over 25 µM throughout. Besides, the GI50 in assay [7], in assay [8], in assay [9] and in assay [10] was over 25 µM throughout. The TGI in [1], in [2], in assay [3], in [4], in assay [5] and in [6] was over 25 µM each time. Besides, the TGI in [7], in assay [8], in assay [9] and in [10] was over 25 µM in each case.
For the compound `CCOC(=O)Nc1ccc2c(c1)C(=O)N(CC)c1ccccc1O2`, the GI50 in assay [1] was 0.0786 µM; in assay [2], 0.232 µM; in assay [3], 0.0829 µM; in [4], 0.117 µM; in assay [5], 0.139 µM; in assay [6], 0.0277 µM. For the same compound, the GI50 is 0.102 µM in assay [7], 0.106 µM in assay [8], 0.157 µM in [9] and 0.0632 µM in [10]. Moreover, the TGI in [1] is 11.8 µM; in assay [2] it was over 100 µM; in assay [3], over 100 µM; in assay [4], over 100 µM; in assay [5], over 100 µM; in assay [6], 54.9 µM. Besides, the TGI in assay [7] is over 100 µM; in assay [8] it was 2.33 µM; in assay [9] it was over 100 µM; in [10], over 100 µM.
In the case of `Cc1ccc(-c2nc(/C=N/Nc3cc(C)nc4ccc(Br)cc34)c(C)o2)cc1`, the GI50 in assay [1] was 3.73 µM; in [2], 1.8 µM; in [3], 1.85 µM; in assay [4], 17 µM; in [5] it was 1.92 µM; in [6], 1.65 µM. Moreover, the GI50 in assay [7] was 19.7 µM; in assay [8], 3.7 µM; in assay [9] it was 1.8 µM; in assay [10] it was 1.92 µM. Further, the TGI in [1] was 20.4 µM; in [2], 3.21 µM; in assay [3], 3.46 µM; in assay [4], 38.6 µM; in assay [5] it was 3.99 µM; in assay [6] it was 3.22 µM. In addition, the TGI was 41.2 µM in assay [7], 13.6 µM in assay [8], 3.29 µM in [9] and 3.68 µM in assay [10].
In the case of `Cc1nc(-n2nc(-c3ccccc3)cc2-c2ccccc2)sc1C(=O)/C=C/c1ccc([N+](=O)[O-])cc1`, the TGI in assay [1] is over 65.8 µM; in assay [2], over 52 µM; in assay [3] it was 28.3 µM; in assay [4], over 100 µM; in assay [5] it was over 100 µM; in assay [6], 49.3 µM. For the same compound, the TGI was over 100 µM in assay [7], over 56.4 µM in assay [8], over 100 µM in [9] and over 71.2 µM in assay [10].
As for `C#Cc1cccc(NC(=O)c2cccc(NC(=O)CCl)c2)c1`, the GI50 in assay [1] was 6.14 µM; in [2] it was 15.2 µM; in [3] it was 7.98 µM; in assay [4], 17.4 µM; in [5], 12.8 µM; in assay [6], 12.7 µM. Besides, the GI50 in [7] was 62.8 µM; in [8], 15.1 µM; in [9] it was 56.4 µM; in [10] it was 4.55 µM. The TGI in assay [1] was over 82.5 µM; in assay [2], 42.9 µM; in [3], 44.6 µM; in assay [4] it was 76.2 µM; in [5], over 82.5 µM; in [6], 29.8 µM. Further, the TGI in assay [7] was over 82.5 µM; in assay [8], 28 µM; in [9], over 82.5 µM; in assay [10], 17 µM.
`Cc1cc(=O)oc2cc3oc(N(C)c4ccccc4)nc(=O)c3cc12`: the TGI in assay [1], in assay [2], in assay [3], in assay [4], in assay [5] and in [6] was over 100 µM each time. Besides, the TGI in assay [7], in [8], in [9] and in assay [10] was over 100 µM in each case.
For the compound `O=c1oc2ccc(Cl)cc2c(=O)n1-c1ccc(F)cc1F`, the GI50 in [1] was 0.372 µM; in assay [2], 2.14 µM; in assay [3], 2.53 µM; in [4] it was 1.55 µM; in assay [5], 2.42 µM; in assay [6], 1.76 µM. The GI50 is 1.13 µM in assay [7], 1.11 µM in assay [8], 1.12 µM in assay [9] and 3.12 µM in assay [10]. Further, the TGI in [1] was 1.68 µM; in assay [2] it was 6.08 µM; in [3] it was 10.4 µM; in assay [4], 7.66 µM; in [5] it was over 100 µM; in assay [6], 5.72 µM. Also, the TGI is 3.97 µM in assay [7], 2.46 µM in [8], 5.43 µM in assay [9] and 16.9 µM in assay [10].
With `COc1c(C)c(OC)c(C(=O)CC(C)C)c(OC)c1C`, the TGI in assay [1], in [2], in assay [3], in assay [4], in assay [5] and in assay [6] was over 100 µM each time. Besides, the TGI in [7], in assay [8], in assay [9] and in [10] was over 100 µM in each case.
Consider `O=C(Nc1n[nH]c2nc(-c3ccc(O)cc3)c(Br)cc12)C1CC1`, for which the GI50 in assay [1] is 4.65 µM; in assay [2] it was 2.62 µM; in assay [3], 1.9 µM; in [4] it was 4.15 µM; in [5], 1.05 µM; in [6] it was 1.18 µM. The GI50 was 3.07 µM in [7], 0.607 µM in [8], 2.67 µM in assay [9] and 4.36 µM in [10]. The TGI was 14.4 µM in assay [1]; over 21.8 µM in assay [2]; over 25 µM in assay [3]; 21.6 µM in assay [4]; 10.2 µM in [5]; 5.02 µM in [6]. Moreover, the TGI in assay [7] was 7.17 µM; in [8], 4.07 µM; in assay [9] it was 11.8 µM; in [10] it was over 25 µM.
Regarding `CC(C)=Cc1cccc2[nH]c(O)c(N=Nc3ccc(S(N)(=O)=O)cc3)c12`, the GI50 in assay [1] was over 25 µM; in assay [2] it was 2.09 µM; in [3], 1.74 µM; in assay [4], 0.506 µM; in assay [5], 1.04 µM; in assay [6], 0.987 µM. In addition, the GI50 in assay [7] was over 25 µM; in assay [9], 14.5 µM; in assay [10], 1.14 µM. The total growth inhibition concentration (TGI) in assay [1] is over 25 µM; in assay [2], over 25 µM; in assay [3], over 14.3 µM; in assay [4], 16.4 µM; in [5], over 25 µM; in [6], over 19.4 µM. Besides, the TGI in [7], in assay [8], in assay [9] and in assay [10] was over 25 µM throughout.
Regarding `O=S(=O)(O)n1ccnc1` (tested in a mixture with another compound), the TGI in assay [1], in [2], in [3], in assay [4], in assay [5] and in [6] was over 100 µM in each case. The TGI in [7], in assay [8], in assay [9] and in [10] was over 100 µM each time.
